{
  "source": "patent US10370433B2",
  "about": "“Compositions and methods for diagnosis and treatment of cancer” (BIONTECH AG, priority 2015, dated 2019)",
  "key": {"[1]": {"biological_target": "T1, murine homologue of Seprase (Mus musculus, UniProt P97321)", "T1 construct": "expressed in transfected cells; host or cells: CHO-K1", "T1 sequence (P97321 1-761)": "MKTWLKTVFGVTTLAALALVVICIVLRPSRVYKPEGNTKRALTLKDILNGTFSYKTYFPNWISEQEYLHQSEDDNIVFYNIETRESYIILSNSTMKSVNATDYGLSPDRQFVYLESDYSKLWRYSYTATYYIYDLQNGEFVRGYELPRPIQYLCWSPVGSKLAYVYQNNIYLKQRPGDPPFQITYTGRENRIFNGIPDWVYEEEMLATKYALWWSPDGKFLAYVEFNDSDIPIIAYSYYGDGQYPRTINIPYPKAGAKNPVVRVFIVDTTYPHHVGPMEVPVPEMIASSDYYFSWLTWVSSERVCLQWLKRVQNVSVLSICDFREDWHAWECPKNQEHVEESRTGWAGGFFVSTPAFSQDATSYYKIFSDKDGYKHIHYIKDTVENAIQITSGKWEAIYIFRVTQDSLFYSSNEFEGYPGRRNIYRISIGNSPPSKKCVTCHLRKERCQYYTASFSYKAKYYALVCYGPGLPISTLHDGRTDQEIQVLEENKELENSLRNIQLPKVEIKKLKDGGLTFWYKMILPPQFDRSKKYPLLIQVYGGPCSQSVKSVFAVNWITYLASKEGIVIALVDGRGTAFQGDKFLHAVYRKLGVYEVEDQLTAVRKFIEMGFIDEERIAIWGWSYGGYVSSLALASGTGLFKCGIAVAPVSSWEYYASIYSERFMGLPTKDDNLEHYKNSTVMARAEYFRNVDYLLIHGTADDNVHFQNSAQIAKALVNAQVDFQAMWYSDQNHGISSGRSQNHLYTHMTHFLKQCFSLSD", "type": "cell-based"}, "[2]": {"biological_target": "T2, murine Seprase expressing tumor cells (CAFs in CT26 tumor sections) (Mus musculus, UniProt P97321)", "T2 construct": "from tissue; host or cells: paraffin sections of subcutaneous CT26 tumors grown in BALB/c mice (stromal CAFs)", "T2 sequence (P97321 1-761)": "T1 sequence (P97321 1-761)", "assay": "Staining of paraffin sections of CT26 tumors"}, "DPP IV": {"biological_target": "T3, DPP IV (Homo sapiens, UniProt P27487)", "T3 construct": "purchased R&D Systems", "T3 sequence (P27487 whole entry)": "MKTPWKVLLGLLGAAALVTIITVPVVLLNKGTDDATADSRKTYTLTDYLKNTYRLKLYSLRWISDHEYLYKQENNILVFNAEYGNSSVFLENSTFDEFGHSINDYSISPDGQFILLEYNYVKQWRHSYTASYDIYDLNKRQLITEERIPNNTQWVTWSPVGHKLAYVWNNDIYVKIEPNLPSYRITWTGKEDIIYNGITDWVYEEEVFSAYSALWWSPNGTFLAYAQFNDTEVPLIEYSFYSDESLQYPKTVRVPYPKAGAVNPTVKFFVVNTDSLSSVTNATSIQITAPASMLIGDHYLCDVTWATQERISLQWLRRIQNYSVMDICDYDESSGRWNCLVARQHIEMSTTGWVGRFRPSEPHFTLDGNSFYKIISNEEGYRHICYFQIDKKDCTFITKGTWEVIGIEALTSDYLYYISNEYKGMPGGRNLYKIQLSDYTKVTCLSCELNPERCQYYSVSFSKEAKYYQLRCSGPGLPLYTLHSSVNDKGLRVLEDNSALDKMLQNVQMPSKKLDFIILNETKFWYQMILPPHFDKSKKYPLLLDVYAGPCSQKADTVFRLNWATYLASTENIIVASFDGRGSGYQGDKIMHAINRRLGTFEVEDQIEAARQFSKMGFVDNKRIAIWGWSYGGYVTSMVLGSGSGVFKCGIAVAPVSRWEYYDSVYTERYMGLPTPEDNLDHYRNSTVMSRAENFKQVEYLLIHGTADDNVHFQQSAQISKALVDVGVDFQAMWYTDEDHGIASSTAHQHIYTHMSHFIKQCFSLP", "type": "binding"}, "human Seprase [3]": {"biological_target": "T4, human Seprase (Homo sapiens, UniProt Q12884)", "T4 sequence (Q12884 26-760)": "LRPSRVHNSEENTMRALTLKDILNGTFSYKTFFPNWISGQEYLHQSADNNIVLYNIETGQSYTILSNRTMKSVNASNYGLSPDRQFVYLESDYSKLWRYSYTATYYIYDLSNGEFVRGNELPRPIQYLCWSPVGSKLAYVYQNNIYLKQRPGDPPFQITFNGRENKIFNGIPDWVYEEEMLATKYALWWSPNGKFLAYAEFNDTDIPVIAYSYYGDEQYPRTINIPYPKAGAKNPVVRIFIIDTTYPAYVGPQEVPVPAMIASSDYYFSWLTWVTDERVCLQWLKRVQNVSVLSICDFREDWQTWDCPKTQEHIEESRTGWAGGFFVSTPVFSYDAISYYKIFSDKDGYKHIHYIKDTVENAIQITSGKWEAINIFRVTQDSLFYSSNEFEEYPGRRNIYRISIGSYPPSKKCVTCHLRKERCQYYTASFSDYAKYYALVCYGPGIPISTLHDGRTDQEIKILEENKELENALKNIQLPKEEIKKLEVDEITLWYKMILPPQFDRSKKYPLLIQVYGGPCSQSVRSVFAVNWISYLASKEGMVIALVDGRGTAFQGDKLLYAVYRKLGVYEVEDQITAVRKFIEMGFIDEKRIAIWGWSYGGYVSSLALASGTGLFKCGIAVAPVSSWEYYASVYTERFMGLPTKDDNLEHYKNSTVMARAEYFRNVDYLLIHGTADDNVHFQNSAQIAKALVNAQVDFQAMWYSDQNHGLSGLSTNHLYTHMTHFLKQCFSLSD"}, "human Seprase [4]": {"biological_target": "T4, human Seprase", "type": "binding", "set-up": "named pCEP4-IgKappa-huSeprase-coCHO_26-760aa-H6 and used for the generation of recombinant soluble human Seprase (rhuSeprase); mouse Ig kappa-chain V-J2-C secretion signal (N, cleaved yes); made in house; host or cells: FreeStyle CHO-S cells (transient transfection; purified from supernatant by Ni-chelate and SEC)"}, "[5]": {"biological_target": "T5, recombinant human Seprase (rhuSeprase) (Homo sapiens, UniProt Q12884)", "T5 construct": "named pCEP4-IgKappa-huSeprase-coCHO_26-760aa-H6 and used for the generation of recombinant soluble human Seprase (rhuSeprase); mouse Ig kappa-chain V-J2-C secretion signal (N, cleaved yes); made in house; host or cells: FreeStyle CHO-S cells (transient transfection; purified from supernatant by Ni-chelate and SEC)", "T5 sequence (Q12884 26-760)": "T4 sequence (Q12884 26-760)", "assay": "Surface plasmon resonance (Biacore T100) on immobilized rhuSeprase", "type": "binding"}},
  "note": "Positions of bridges follow the written chain, without caps; N, C: chain ends. Residues, ends and D or L forms follow the SMILES beside them.",
  "data": [
    {"smiles": "CC[C@H](C)[C@@H]1NC(=O)[C@@H]2CSSC[C@H](NC(=O)[C@H](CCCCN)NC(=O)CN)C(=O)N3CCC[C@H]3C(=O)N[C@@H](Cc3ccc(O)cc3)C(=O)N[C@@H](CO)C(=O)N[C@@H](CC(N)=O)C(=O)N[C@@H](Cc3c[nH]c4ccccc34)C(=O)N[C@@H]([C@@H](C)O)C(=O)N3CCC[C@H]3C(=O)NCC(=O)N[C@@H](CCCNC(=N)N)C(=O)NCC(=O)N3CCC[C@H]3C(=O)N[C@@H](CC(=O)O)C(=O)N[C@H]3CSSC[C@H](NC1=O)C(=O)N[C@@H](CCCNC(=N)N)C(=O)NCC(=O)N[C@@H](CC(N)=O)C(=O)NCC(=O)N[C@@H](Cc1ccc(O)cc1)C(=O)N[C@H](C(=O)NCC(=O)O)CSSC[C@H](NC(=O)[C@H](CC(=O)O)NC(=O)[C@H](CO)NC(=O)[C@H](CC(=O)O)NC(=O)[C@H](CCCNC(=N)N)NC(=O)[C@H](CCCNC(=N)N)NC3=O)C(=O)N1CCC[C@H]1C(=O)NCC(=O)N[C@@H](CCCNC(=N)N)C(=O)N2", "note": "[MC-FA-010] (H-GKCPYSNWTPGRGPDCRRDSDCPGRCICRGNGYCG-OH; disulfide 3-26, 16-28, 22-34)", "values": [
      {"measurement": "cross-reactivity with the murine homologue", "setting": "[1]", "value": "cross-reactive"},
      {"measurement": "binding to CT26 tumor section", "setting": "[2]", "value": "binds on CAFs"},
      {"measurement": "binding to DPP IV", "setting": "DPP IV", "value": "very weak signal"},
      {"measurement": "IC50, binding affinity to human Seprase", "setting": "human Seprase [3]", "value": "nanomolar range"},
      {"measurement": "EC50, binding affinity to human Seprase", "setting": "human Seprase [4]", "value": "nanomolar range"},
      {"measurement": "binding to Seprase", "setting": "human Seprase [4]", "value": "binds strongly and selectively"},
      {"measurement": "kd", "setting": "[5]", "value": 0.2006, "unit": "s⁻¹"},
      {"measurement": "kon", "setting": "[5]; read-out: ka (1/Ms)", "value": "1.53e+06", "unit": "M⁻¹ s⁻¹"}
    ]}
  ]
}
